Source: patent US12674038B2, “Composition and method for microbial control for use with polymers” (MICROBAN PRODUCTS COMPANY, priority 2022, dated 2026)

System: Escherichia coli (gram-negative bacteria)
Assay: Antimicrobial efficacy of polymer samples against Escherichia coli, ISO22196 test method
Details: E. coli

O=C(O)c1ccccc1 [GBA, benzoic acid]
log reduction (consistent antimicrobial efficacy) (5250 ppm level in TPU): > 1
log reduction (TPU, 4500 ppm GBA alone): less than 1
